For 17 molecules, IC50 results are on record in US12286443B2, “Bycyclic JAK inhibitors and uses thereof” (Insilico Medicine IP Limited, priority 2019, dated 2025).

Assay [1] has as its target T1, JAK1 (Homo sapiens, UniProt P23458).
T1 construct: purchased Invitrogen PV4775
In words: Inhibition of JAK1 kinase, LANCE Ultra TR-FRET assay. In kind it is biochemical. The settings on record: 2 nM JAK1, 2x ATP 76 μM, 15 min pre-incubation, 90 min reaction, 23° C. An outline of the steps: (§1)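 Enzyme, 50 nM ULight-JAK-1 peptide and compound (100 μM–1.7 nM, 11 points, duplicates) were preincubated 15 min in HEPES pH 7.5 buffer, and the reaction was started with 2× ATP stock (76 μM JAK1, 24 μM JAK2, 8 μM JAK3, 30 μM TYK2), 90 min, 23° C. Eu anti-phosphotyrosine TR-FRET 665/615; 4-parameter IC50.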

The target in assay [2] is T2, JAK2 (Homo sapiens, UniProt O60674).
T2 construct: purchased Invitrogen PV4210
Put plainly: Inhibition of JAK2 kinase, LANCE Ultra TR-FRET assay. In kind it is biochemical. The settings on record: 2x ATP 24 μM, 15 min pre-incubation, 90 min reaction, 23° C. An outline of the steps: as §1
On the technique in general: TR-FRET usually uses a lanthanide donor and a delayed reading to cut background.

Assay [3] deals with T3, JAK3 (Homo sapiens, UniProt P52333).
T3 construct: purchased Invitrogen PV4080
T3 sequence (P52333 1-1124): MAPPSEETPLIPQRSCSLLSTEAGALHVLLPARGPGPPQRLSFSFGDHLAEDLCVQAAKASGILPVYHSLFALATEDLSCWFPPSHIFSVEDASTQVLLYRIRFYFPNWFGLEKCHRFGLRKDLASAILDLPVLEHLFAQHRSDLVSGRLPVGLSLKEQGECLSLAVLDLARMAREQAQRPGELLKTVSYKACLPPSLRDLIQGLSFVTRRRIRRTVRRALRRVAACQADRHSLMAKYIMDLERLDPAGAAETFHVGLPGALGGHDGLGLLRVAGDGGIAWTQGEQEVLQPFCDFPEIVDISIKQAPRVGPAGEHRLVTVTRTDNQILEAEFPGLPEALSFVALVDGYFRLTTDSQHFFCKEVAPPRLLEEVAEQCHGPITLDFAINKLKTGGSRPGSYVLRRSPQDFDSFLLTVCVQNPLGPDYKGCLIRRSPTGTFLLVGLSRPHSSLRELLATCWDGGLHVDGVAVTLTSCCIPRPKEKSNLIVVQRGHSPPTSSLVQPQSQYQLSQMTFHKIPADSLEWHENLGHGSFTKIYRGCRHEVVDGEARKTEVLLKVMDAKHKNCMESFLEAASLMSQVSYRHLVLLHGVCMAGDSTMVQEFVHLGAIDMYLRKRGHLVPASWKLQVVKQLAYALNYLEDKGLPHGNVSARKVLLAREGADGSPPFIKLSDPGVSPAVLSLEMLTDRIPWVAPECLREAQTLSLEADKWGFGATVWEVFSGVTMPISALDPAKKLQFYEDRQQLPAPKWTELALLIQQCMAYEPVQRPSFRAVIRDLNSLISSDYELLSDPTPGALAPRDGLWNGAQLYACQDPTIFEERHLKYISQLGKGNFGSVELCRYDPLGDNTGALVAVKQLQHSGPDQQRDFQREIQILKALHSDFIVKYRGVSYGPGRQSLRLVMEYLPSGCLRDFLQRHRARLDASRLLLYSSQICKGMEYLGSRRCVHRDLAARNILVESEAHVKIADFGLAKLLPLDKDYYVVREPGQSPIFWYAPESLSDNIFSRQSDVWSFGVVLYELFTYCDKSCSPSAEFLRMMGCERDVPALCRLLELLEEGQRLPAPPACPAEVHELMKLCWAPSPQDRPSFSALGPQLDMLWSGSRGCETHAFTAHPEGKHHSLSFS
Put plainly: Inhibition of JAK3 kinase, LANCE Ultra TR-FRET assay. In kind it is biochemical. The note with it: 2x ATP 8 μM, 15 min pre-incubation, 90 min reaction, 23° C. An outline of the steps:
as §1

Assay [4] concerns the target T4, TYK2 (Homo sapiens, UniProt P29597).
T4 construct: purchased Invitrogen PR8440C
Put plainly: Inhibition of TYK2 kinase, LANCE Ultra TR-FRET assay. In kind it is biochemical. The settings on record: 4 nM TYK2, 2x ATP 30 μM, 15 min pre-incubation, 90 min reaction, 23° C., read-out: tyk IC50. An outline of the steps:
as §1

In assay [5] the test system is Hut-78 cells. Put plainly: Inhibition in Hut-78 cells (IL-2 stimulated, HTRF). The settings on record: Homo sapiens, HuT78; compound 2 hours at 37° C., then IL-2 100 ng/mL 10 min; HTRF; read-out: Hut-78 cells IC50. In kind it is cell-based. The procedure:
Exemplary compounds were assayed to determine potency in inhibiting Hut-78 cells by determining IC50 values.
Hut-78 cells were cultures in IMDM+20% FBS medium. Cells were maintained in log phase before the assay. Cell pellets were collected and resuspended in serum-free and phenol-free RPMI 1640 medium. 40,000 cells/well (10 μL) were seeded in each well of a 384-well plate and incubated with and without compound for 2 hours at 37° C. and 5% C02. IL-2 was added (2 μL, final concentration 100 ng/mL) and the mixture was incubated for 10 min. Cells were lysed by adding 4 μL labeled antibodies and the mixture was incubated overnight. The plate was read using the HTRF protocol on an Envision plate reader. The data was analyzed using XL-fit software (Supplier: ID business solutions Ltd.; Software version: XL fit 5.0). Inhibition %=(Max−Sample value)/(Max−Min)*100.
In the table, “A” indicates an IC50 of less than 0.5 μM, “B” indicates an IC50 range from 0.5 μM to 1 μM; and “C” indicates an IC50 range from 1 μM to 10 μM. Also, “na” indicates data is not available.

One may read the IC50 as the midpoint of a concentration-inhibition curve.

T2 sequence (O60674 whole entry): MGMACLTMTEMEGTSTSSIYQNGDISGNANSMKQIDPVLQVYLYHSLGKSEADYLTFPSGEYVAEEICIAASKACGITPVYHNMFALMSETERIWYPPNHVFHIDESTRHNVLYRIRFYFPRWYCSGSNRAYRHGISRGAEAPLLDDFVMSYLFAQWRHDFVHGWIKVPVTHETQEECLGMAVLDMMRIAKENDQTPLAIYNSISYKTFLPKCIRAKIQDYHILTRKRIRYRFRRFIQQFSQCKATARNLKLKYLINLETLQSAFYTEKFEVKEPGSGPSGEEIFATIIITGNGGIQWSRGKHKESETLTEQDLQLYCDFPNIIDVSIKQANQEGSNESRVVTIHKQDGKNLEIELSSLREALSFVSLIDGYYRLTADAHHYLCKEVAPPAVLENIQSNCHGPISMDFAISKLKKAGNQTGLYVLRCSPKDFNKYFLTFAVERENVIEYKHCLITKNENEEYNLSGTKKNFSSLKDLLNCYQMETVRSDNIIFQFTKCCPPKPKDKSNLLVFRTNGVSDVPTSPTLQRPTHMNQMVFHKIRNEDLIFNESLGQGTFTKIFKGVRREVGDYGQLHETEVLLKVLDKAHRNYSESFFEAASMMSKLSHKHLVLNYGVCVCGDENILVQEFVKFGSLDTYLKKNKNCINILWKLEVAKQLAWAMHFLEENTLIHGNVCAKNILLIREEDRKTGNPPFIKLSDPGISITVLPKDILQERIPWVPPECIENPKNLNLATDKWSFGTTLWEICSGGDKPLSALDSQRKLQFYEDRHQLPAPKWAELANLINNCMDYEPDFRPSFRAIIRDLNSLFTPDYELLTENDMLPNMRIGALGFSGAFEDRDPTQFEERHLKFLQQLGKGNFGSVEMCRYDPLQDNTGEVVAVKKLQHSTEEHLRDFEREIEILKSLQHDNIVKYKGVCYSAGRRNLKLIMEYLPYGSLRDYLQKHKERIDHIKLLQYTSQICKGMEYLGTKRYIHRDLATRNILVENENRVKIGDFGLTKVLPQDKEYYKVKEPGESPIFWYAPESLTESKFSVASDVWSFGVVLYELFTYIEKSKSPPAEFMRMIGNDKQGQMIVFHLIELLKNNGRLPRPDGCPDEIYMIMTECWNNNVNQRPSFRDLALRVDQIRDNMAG
T4 sequence (P29597 whole entry): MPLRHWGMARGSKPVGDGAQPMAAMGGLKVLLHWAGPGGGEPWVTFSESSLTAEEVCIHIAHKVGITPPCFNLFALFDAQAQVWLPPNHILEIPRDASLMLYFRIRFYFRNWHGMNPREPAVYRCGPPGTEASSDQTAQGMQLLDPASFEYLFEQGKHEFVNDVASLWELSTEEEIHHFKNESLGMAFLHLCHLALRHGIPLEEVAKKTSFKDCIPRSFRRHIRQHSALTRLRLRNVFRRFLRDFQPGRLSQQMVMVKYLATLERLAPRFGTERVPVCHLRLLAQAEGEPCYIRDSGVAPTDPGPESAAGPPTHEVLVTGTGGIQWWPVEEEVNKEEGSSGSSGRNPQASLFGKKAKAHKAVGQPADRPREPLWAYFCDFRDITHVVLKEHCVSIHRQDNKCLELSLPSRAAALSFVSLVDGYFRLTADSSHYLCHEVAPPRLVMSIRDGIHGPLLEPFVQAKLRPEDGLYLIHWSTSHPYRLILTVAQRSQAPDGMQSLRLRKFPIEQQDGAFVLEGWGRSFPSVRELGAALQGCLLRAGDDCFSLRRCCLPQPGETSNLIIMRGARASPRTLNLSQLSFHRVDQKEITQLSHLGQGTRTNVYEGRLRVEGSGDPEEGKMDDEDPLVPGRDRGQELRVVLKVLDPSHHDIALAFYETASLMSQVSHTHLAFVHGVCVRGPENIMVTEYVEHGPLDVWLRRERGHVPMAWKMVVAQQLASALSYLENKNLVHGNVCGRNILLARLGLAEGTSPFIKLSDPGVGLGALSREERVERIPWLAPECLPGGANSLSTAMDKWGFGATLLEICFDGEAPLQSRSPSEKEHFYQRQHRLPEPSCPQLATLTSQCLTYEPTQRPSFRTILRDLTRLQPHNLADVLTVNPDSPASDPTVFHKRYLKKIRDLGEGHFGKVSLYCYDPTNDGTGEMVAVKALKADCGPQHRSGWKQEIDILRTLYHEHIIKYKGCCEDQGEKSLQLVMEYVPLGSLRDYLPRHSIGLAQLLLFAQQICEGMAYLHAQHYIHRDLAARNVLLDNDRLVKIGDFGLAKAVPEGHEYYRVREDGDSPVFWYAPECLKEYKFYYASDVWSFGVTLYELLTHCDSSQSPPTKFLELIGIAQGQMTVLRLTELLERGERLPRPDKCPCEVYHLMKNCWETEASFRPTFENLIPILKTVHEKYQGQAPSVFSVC
T1 sequence (P23458 whole entry): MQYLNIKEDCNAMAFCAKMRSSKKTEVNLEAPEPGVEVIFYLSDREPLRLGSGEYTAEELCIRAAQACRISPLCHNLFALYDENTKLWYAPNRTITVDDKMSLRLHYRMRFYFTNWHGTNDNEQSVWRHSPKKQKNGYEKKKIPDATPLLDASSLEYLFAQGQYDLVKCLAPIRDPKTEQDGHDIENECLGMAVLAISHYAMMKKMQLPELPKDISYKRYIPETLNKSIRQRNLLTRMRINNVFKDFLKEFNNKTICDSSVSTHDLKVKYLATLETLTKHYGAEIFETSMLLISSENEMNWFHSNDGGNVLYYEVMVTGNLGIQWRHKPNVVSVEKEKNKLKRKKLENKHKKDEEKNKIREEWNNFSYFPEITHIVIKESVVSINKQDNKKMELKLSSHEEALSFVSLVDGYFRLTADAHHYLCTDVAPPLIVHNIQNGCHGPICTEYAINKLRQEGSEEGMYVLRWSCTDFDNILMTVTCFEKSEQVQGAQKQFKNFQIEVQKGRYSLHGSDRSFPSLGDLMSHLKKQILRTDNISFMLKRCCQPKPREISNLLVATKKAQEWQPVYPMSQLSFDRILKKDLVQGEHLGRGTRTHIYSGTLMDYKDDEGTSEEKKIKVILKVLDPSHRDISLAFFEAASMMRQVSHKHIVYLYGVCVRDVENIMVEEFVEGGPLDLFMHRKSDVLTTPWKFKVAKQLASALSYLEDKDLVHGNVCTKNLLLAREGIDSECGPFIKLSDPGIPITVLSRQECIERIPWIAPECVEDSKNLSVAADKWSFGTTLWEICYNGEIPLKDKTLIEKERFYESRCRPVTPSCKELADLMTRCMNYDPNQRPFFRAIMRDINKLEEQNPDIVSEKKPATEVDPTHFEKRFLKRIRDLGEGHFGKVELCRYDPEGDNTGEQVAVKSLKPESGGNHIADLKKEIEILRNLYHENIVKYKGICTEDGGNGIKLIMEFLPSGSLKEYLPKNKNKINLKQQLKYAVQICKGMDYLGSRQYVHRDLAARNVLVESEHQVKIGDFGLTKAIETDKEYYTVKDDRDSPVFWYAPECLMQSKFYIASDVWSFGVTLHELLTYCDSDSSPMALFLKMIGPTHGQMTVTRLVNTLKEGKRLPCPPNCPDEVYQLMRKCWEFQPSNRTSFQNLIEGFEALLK

In the case of `CC1(CNC(=O)c2noc3c2CN(c2ncnc4[nH]ccc24)CC3)CC(F)(F)C1` [Compound 199], the half-maximal inhibitory concentration (IC50) in assay [1] was < 100 nM; in assay [2], 100 to 500 nM; in assay [3], < 100 nM; in assay [4], 500 to 2000 nM; in assay [5] it was < 500 nM.
As for `O=C(NCC1CC1(F)F)c1noc2c1CN(c1ncnc3[nH]ccc13)CC2` (stereo not shown) [Compound 179], the IC50 was 100 to 500 nM in assay [1]; 100 to 500 nM in assay [2]; < 100 nM in assay [3]; > 2000 nM in assay [4]; 1000 to 10000 nM in assay [5].
On to `O=C(N[C@H]1C[C@@](O)(C(F)(F)F)C1)c1noc2c1CN(c1ncnc3[nH]ccc13)CC2` [Compound 202], for which the IC50 in assay [1] is < 100 nM; in assay [2] it was < 100 nM; in assay [3] it was < 100 nM; in assay [4], 500 to 2000 nM; in assay [5] it was < 500 nM.
On to `O=C(NC(CO)CC(F)(F)F)c1noc2c1CN(c1ncnc3[nH]ccc13)CC2` (stereo not shown) [Compound 186], for which the IC50 is < 100 nM in assay [1]; < 100 nM in assay [2]; < 100 nM in assay [3]; 100 to 500 nM in assay [4]; < 500 nM in assay [5].
Take `O=C(NCCC(F)(F)F)c1nn(C(=O)CCc2ccccc2)c2c1CN(c1ncnc3[nH]ccc13)CC2` [Compound 103]: the IC50 was 100 to 500 nM in assay [1]; 100 to 500 nM in assay [2]; < 100 nM in assay [3]; > 2000 nM in assay [4]; 1000 to 10000 nM in assay [5].
On to `O=C(c1noc2c1CN(c1ncnc3[nH]ccc13)CC2)N1CC(C(F)(F)F)C1` [Compound 194], for which the concentration for half-maximal inhibition (IC50) in assay [1] is < 100 nM; in assay [2], < 100 nM; in assay [3], < 100 nM; in assay [4] it was 100 to 500 nM; in assay [5], < 500 nM.
Turning to `O=C(NCCC(F)(F)F)c1n[nH]c2c1CN(c1ncnc3[nH]ccc13)CC2` [Compound 109], the concentration for half-maximal inhibition (IC50) in assay [1] was < 100 nM; in assay [2], 100 to 500 nM; in assay [3], < 100 nM; in assay [4] it was 500 to 2000 nM; in assay [5], 1000 to 10000 nM.
In the case of `O=C(NCCC(F)(F)F)c1nn(Cc2ccncc2)c2c1CN(c1ncnc3[nH]ccc13)CC2` [Compound 105], the IC50 was 100 to 500 nM in assay [1]; 100 to 500 nM in assay [2]; < 100 nM in assay [3]; > 2000 nM in assay [4]; 500 to 1000 nM in assay [5].
For the molecule `O=C(NC1CC(O)(C(F)(F)F)C1)c1noc2c1CN(c1ncnc3[nH]ccc13)CC2` (stereo not shown) [Compound 201], the IC50 in assay [1] was < 100 nM; in assay [2] it was 100 to 500 nM; in assay [3], < 100 nM; in assay [4] it was > 2000 nM; in assay [5], < 500 nM.
With `O=C(NCCC(F)(F)F)c1onc2c1CN(c1ncnc3[nH]ccc13)CC21CC1` [Compound 193], the IC50 in assay [1] is 100 to 500 nM; in assay [2], 100 to 500 nM; in assay [3], < 100 nM; in assay [4] it was 500 to 2000 nM; in assay [5], 500 to 1000 nM.
For the molecule `O=C(NCC1CC(F)(F)C1)c1noc2c1CN(c1ncnc3[nH]ccc13)CC2` [Compound 198], the IC50 in assay [1] was < 100 nM; in assay [2], 100 to 500 nM; in assay [3], < 100 nM; in assay [4], > 2000 nM; in assay [5], < 500 nM.
As for `COCCn1nc(C(=O)NCCC(F)(F)F)c2c1CCN(c1ncnc3[nH]ccc13)C2` [Compound 104], the half-inhibitory concentration (IC50) in assay [1] is 100 to 500 nM; in assay [2], 100 to 500 nM; in assay [3], < 100 nM; in assay [4], > 2000 nM; in assay [5] it was 500 to 1000 nM.
As to `O=C(NC1CC1C(F)(F)F)c1noc2c1CN(c1ncnc3[nH]ccc13)CC2` (stereo not shown) [Compound 182], the IC50 in assay [1] was < 100 nM; in assay [2], 100 to 500 nM; in assay [3] it was < 100 nM; in assay [4], 500 to 2000 nM; in assay [5], < 500 nM.
With `O=C(NCCC(F)(F)F)c1noc2c1CN(c1ncnc3[nH]ccc13)CC21CC1` [Compound 192], the half-maximal inhibitory concentration (IC50) is < 100 nM in assay [1]; 100 to 500 nM in assay [2]; < 100 nM in assay [3]; > 2000 nM in assay [4]; 500 to 1000 nM in assay [5].
In the case of `N#Cc1cn(C(=O)NCCC(F)(F)F)c2c1CCN(c1ncnc3[nH]ccc13)C2` [Compound 143], the 50% inhibitory concentration (IC50) in assay [1] was 100 to 500 nM; in assay [2], 100 to 500 nM; in assay [3], < 100 nM; in assay [4], 500 to 2000 nM; in assay [5] it was 1000 to 10000 nM.
Take `CCS(=O)(=O)n1nc(C(=O)NCCC(F)(F)F)c2c1CCN(c1ncnc3[nH]ccc13)C2` [Compound 102]: the half-inhibitory concentration (IC50) is 500 to 2000 nM in assay [1]; 100 to 500 nM in assay [2]; < 100 nM in assay [3]; > 2000 nM in assay [4]; 1000 to 10000 nM in assay [5].
The matching figures for `O=C(NCCC(F)(F)F)c1noc2c1CN(c1ncnc3[nH]ccc13)CC2` [Compound 110]: < 100 nM, < 100 nM, < 100 nM, 100 to 500 nM and 500 to 1000 nM.
